Data: the OligoGym collection
HELM strings list units from the 5' end as sugar, base in round brackets, then linkage (d deoxyribose, r ribose, m 2'-O-methyl, p phosphodiester). Strings are as the collection lists them, not checked against the first reports. ss, as = sense and antisense strand

Details: siRNA
Note: test system not given here.

Substance	target mRNA knockdown
RNA1{m(C)p.r(G)p.m(A)p.r(G)p.m(U)p.r(G)p.m(U)p.r(C)p.m(U)p.r(A)p.m(A)p.r(C)p.m(G)p.r(G)p.m(G)p.r(A)p.m(G)p.r(C)p.m(C)p.r(T)p.r(T)}|RNA2{r(G)p.r(G)p.r(C)p.r(U)p.r(C)p.r(C)p.r(C)p.r(G)p.r(U)p.r(U)p.r(A)p.r(G)p.r(A)p.r(C)p.r(A)p.r(C)p.r(U)p.r(C)p.r(G)p.r(T)p.r(T)}$$$RNA1{StrandType:ss}|RNA2{StrandType:as}$	25%
RNA1{m(C)p.r(G)p.m(C)p.r(C)p.m(C)p.r(C)p.m(C)p.r(C)p.m(U)p.r(C)p.m(A)p.r(A)p.m(G)p.r(C)p.m(U)p.r(A)p.m(C)p.r(C)p.m(G)p.r(T)p.r(T)}|RNA2{r(C)p.r(G)p.r(G)p.r(U)p.r(A)p.r(G)p.r(C)p.r(U)p.r(U)p.r(G)p.r(A)p.r(G)p.r(G)p.r(G)p.r(G)p.r(G)p.r(G)p.r(C)p.r(G)p.r(T)p.r(T)}$$$RNA1{StrandType:ss}|RNA2{StrandType:as}$	44%
RNA1{m(C)p.r(G)p.m(G)p.r(A)p.m(U)p.r(C)p.m(U)p.r(A)p.m(C)p.r(A)p.m(C)p.r(C)p.m(U)p.r(U)p.m(C)p.r(A)p.m(A)p.r(G)p.m(A)p.r(T)p.r(T)}|RNA2{m(U)p.r(C)p.m(U)p.m(U)p.r(G)p.r(A)p.r(A)p.r(G)p.r(G)p.m(U)p.r(G)p.m(U)p.r(A)p.r(G)p.r(A)p.m(U)p.r(C)p.r(C)p.r(G)p.r(T)p.r(T)}$$$RNA1{StrandType:ss}|RNA2{StrandType:as}$	29%
RNA1{m(C)p.r(G)p.m(G)p.r(A)p.m(U)p.r(C)p.m(U)p.r(A)p.m(C)p.r(A)p.m(C)p.r(C)p.m(U)p.r(U)p.m(C)p.r(A)p.m(A)p.r(G)p.m(A)p.r(T)p.r(T)}|RNA2{r(U)p.r(C)p.r(U)p.r(U)p.r(G)p.r(A)p.r(A)p.r(G)p.r(G)p.r(U)p.r(G)p.r(U)p.m(A)p.r(G)p.m(A)p.r(U)p.m(C)p.r(C)p.m(G)p.r(T)p.r(T)}$$$RNA1{StrandType:ss}|RNA2{StrandType:as}$	46%
RNA1{m(C)p.r(U)p.m(A)p.r(C)p.m(C)p.r(U)p.m(U)p.r(C)p.m(U)p.r(C)p.m(C)p.r(U)p.m(C)p.r(U)p.m(U)p.r(C)p.m(U)p.r(C)p.m(C)p.r(T)p.r(T)}|RNA2{r(G)p.r(G)p.r(A)p.r(G)p.r(A)p.r(A)p.r(G)p.r(A)p.r(G)p.r(G)p.r(A)p.r(G)p.r(A)p.r(A)p.r(G)p.r(G)p.r(U)p.r(A)p.r(G)p.r(T)p.r(T)}$$$RNA1{StrandType:ss}|RNA2{StrandType:as}$	27%
RNA1{m(C)p.r(U)p.m(A)p.r(G)p.m(U)p.r(C)p.m(G)p.r(A)p.m(A)p.r(A)p.m(G)p.r(A)p.m(A)p.r(A)p.m(A)p.r(C)p.m(G)p.r(G)p.m(G)p.r(T)p.r(T)}|RNA2{r(C)p.r(C)p.r(C)p.r(G)p.r(U)p.r(U)p.r(U)p.r(U)p.r(C)p.r(U)p.r(U)p.r(U)p.r(C)p.r(G)p.m(A)p.r(C)p.r(U)p.m(A)p.r(G)p.r(T)p.r(T)}$$$RNA1{StrandType:ss}|RNA2{StrandType:as}$	23%
RNA1{m(C)p.r(U)p.m(C)p.r(A)p.m(A)p.r(A)p.m(U)p.r(C)p.m(A)p.r(A)p.m(G)p.r(G)p.m(C)p.r(C)p.m(G)p.r(G)p.m(A)p.r(G)p.m(U)p.r(T)p.r(T)}|RNA2{r(A)p.r(C)p.r(U)p.r(C)p.r(C)p.m(G)p.m(G)p.r(C)p.r(C)p.r(U)p.r(U)p.m(G)p.r(A)p.r(U)p.r(U)p.r(U)p.m(G)p.r(A)p.m(G)p.r(T)p.r(T)}$$$RNA1{StrandType:ss}|RNA2{StrandType:as}$	36%
RNA1{m(C)p.r(U)p.m(C)p.r(C)p.m(C)p.r(C)p.m(A)p.r(G)p.m(U)p.r(C)p.m(U)p.r(C)p.m(U)p.r(C)p.m(U)p.r(U)p.m(A)p.r(A)p.m(A)p.r(T)p.r(T)}|RNA2{r(U)p.r(U)p.r(U)p.r(A)p.r(A)p.r(G)p.r(A)p.r(G)p.r(A)p.r(G)p.r(A)p.r(C)p.r(U)p.r(G)p.r(G)p.r(G)p.r(G)p.r(A)p.r(G)p.r(T)p.r(T)}$$$RNA1{StrandType:ss}|RNA2{StrandType:as}$	51%
RNA1{m(C)p.r(U)p.m(C)p.r(C)p.m(G)p.r(A)p.m(C)p.r(A)p.m(G)p.r(A)p.m(U)p.r(G)p.m(A)p.r(A)p.m(G)p.r(G)p.m(A)p.r(A)p.m(A)p.r(T)p.r(T)}|RNA2{r(U)p.r(U)p.r(U)p.r(C)p.r(C)p.r(U)p.r(U)p.r(C)p.m(A)p.r(U)p.r(C)p.r(U)p.r(G)p.r(U)p.r(C)p.r(G)p.r(G)p.m(A)p.r(G)p.r(T)p.r(T)}$$$RNA1{StrandType:ss}|RNA2{StrandType:as}$	46%
RNA1{m(C)p.r(U)p.m(C)p.r(C)p.m(U)p.r(U)p.m(C)p.r(A)p.m(U)p.r(U)p.m(C)p.r(C)p.m(A)p.r(G)p.m(C)p.r(C)p.m(U)p.r(A)p.m(U)p.r(T)p.r(T)}|RNA2{r(A)p.r(U)p.r(A)p.r(G)p.r(G)p.r(C)p.r(U)p.r(G)p.r(G)p.r(A)p.r(A)p.r(U)p.r(G)p.r(A)p.r(A)p.r(G)p.r(G)p.r(A)p.r(G)p.r(T)p.r(T)}$$$RNA1{StrandType:ss}|RNA2{StrandType:as}$	51%
RNA1{m(C)p.r(U)p.m(C)p.r(U)p.m(G)p.r(G)p.m(C)p.r(C)p.m(U)p.m(U)p.r(U)p.r(C)p.m(U)p.r(C)p.m(U)p.r(C)p.m(U)p.r(A)p.m(G)p.r(T)p.r(T)}|RNA2{r(C)p.r(U)p.r(A)p.r(G)p.r(A)p.r(G)p.r(A)p.r(G)p.r(A)p.r(A)p.r(A)p.r(G)p.r(G)p.r(C)p.r(C)p.r(A)p.r(G)p.r(A)p.r(G)p.r(T)p.r(T)}$$$RNA1{StrandType:ss}|RNA2{StrandType:as}$	24%
RNA1{m(C)p.r(U)p.m(G)p.r(A)p.m(C)p.r(C)p.m(G)p.r(G)p.m(A)p.r(A)p.m(G)p.r(C)p.m(G)p.r(C)p.m(U)p.r(U)p.m(A)p.r(A)p.r(A)p.r(T)p.r(T)}|RNA2{r(U)p.r(U)p.r(U)p.r(A)p.r(A)p.r(G)p.r(C)p.r(G)p.m(C)p.r(U)p.r(U)p.r(C)p.m(C)p.r(G)p.r(G)p.r(U)p.m(C)p.r(A)p.r(G)p.r(T)p.r(T)}$$$RNA1{StrandType:ss}|RNA2{StrandType:as}$	27%
RNA1{m(G)p.m(A)p.m(G)p.m(G)p.m(A)p.m(A)p.m(G)p.m(A)p.r(U)p.m(G)p.m(A)p.m(G)p.r(U)p.r(U)p.m(G)p.r(U)p.m(A)p.r(C)p.r(C)p.r(T)p.r(T)}|RNA2{r(G)p.r(G)p.r(U)p.r(A)p.r(C)p.r(A)p.r(A)p.r(C)p.r(U)p.r(C)p.r(A)p.r(U)p.r(C)p.r(U)p.r(U)p.r(C)p.r(C)p.r(U)p.r(C)p.r(T)p.r(T)}$$$RNA1{StrandType:ss}|RNA2{StrandType:as}$	70%
RNA1{m(G)p.m(C)p.m(A)p.m(G)p.m(C)p.m(A)p.m(C)p.m(G)p.m(A)p.m(C)p.m(U)p.m(U)p.m(C)p.m(U)p.m(U)p.m(C)p.m(A)p.m(A)p.m(G)p.r(T)p.r(T)}|RNA2{m(C)p.m(U)p.m(U)p.m(G)p.m(A)p.m(A)p.m(G)p.m(A)p.m(A)p.m(G)p.m(U)p.m(C)p.m(G)p.m(U)p.m(G)p.m(C)p.m(U)p.m(G)p.m(C)p.r(T)p.r(T)}$$$RNA1{StrandType:ss}|RNA2{StrandType:as}$	0%
RNA1{m(G)p.m(C)p.m(A)p.m(G)p.m(C)p.m(A)p.m(C)p.m(G)p.m(A)p.m(C)p.m(U)p.m(U)p.m(C)p.m(U)p.m(U)p.m(C)p.m(A)p.m(A)p.m(G)p.r(T)p.r(T)}|RNA2{r(C)p.r(U)p.r(U)p.r(G)p.r(A)p.r(A)p.r(G)p.r(A)p.r(A)p.r(G)p.r(U)p.r(C)p.r(G)p.r(U)p.r(G)p.r(C)p.r(U)p.r(G)p.r(C)p.r(T)p.r(T)}$$$RNA1{StrandType:ss}|RNA2{StrandType:as}$	25%
